# Source: PubChem BioAssay AID328 (DTP/NCI, 2004)
# Values joined by “and” are separate entries in the source; they are usually repeats but may differ in a detail not shown here. Equal values may be shown once. Inconclusive results and toxic doses are left out.
# Tested on: BDF1 mice, P388 leukemia ip, median survival T/C
# Assay: NCI In Vivo Anticancer Drug Screen. Data for tumor model P388 Leukemia (intraperitoneal) in B6D2F1 (BDF1) mice
# Settings: endpoint: median survival time, higher = longer survival
# How it was run: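 Each value expresses how treatment altered survival: treated-mouse outcome over vehicle-mouse outcome, both groups bearing the transplanted tumour.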
# [1] = dose: 100.0 mg/kg/injection, schedule: Q04DX003 (ip), vehicle: Klucel (hydroxypropylcellulose) (HPC)
# [2] = dose: 100.0 mg/kg/injection, schedule: Q04DX003 (ip), vehicle: saline
# [3] = dose: 200.0 mg/kg/injection, schedule: Q04DX003 (ip), vehicle: Klucel (hydroxypropylcellulose) (HPC)
# [4] = dose: 200.0 mg/kg/injection, schedule: Q04DX003 (ip), vehicle: saline
# [5] = dose: 400.0 mg/kg/injection, schedule: Q04DX003 (ip), vehicle: Klucel (hydroxypropylcellulose) (HPC)
# [6] = dose: 25.0 mg/kg/injection, schedule: Q04DX003 (ip), vehicle: saline
# [7] = dose: 400.0 mg/kg/injection, schedule: Q01DX009 (ip), vehicle: saline with Tween-80
# [8] = dose: 6.25 mg/kg/injection, schedule: Q01DX009 (ip), vehicle: saline with Tween-80
# [9] = dose: 12.5 mg/kg/injection, schedule: Q01DX009 (ip), vehicle: saline with Tween-80
# [10] = dose: 25.0 mg/kg/injection, schedule: Q01DX009 (ip), vehicle: saline with Tween-80
# [11] = dose: 50.0 mg/kg/injection, schedule: Q01DX009 (ip), vehicle: saline with Tween-80
# [12] = dose: 25.0 mg/kg/injection, schedule: Q04DX003 (ip), vehicle: Klucel (hydroxypropylcellulose) (HPC)
# [13] = dose: 50.0 mg/kg/injection, schedule: Q04DX003 (ip), vehicle: Klucel (hydroxypropylcellulose) (HPC)
# [14] = dose: 400.0 mg/kg/injection, schedule: Q04DX003 (ip), vehicle: saline
# [15] = dose: 6.25 mg/kg/injection, schedule: Q01DX009 (ip), vehicle: saline
# [16] = dose: 25.0 mg/kg/injection, schedule: Q01DX009 (ip), vehicle: saline
# [17] = dose: 50.0 mg/kg/injection, schedule: Q01DX009 (ip), vehicle: saline
# [18] = dose: 100.0 mg/kg/injection, schedule: Q01DX009 (ip), vehicle: saline
# [19] = dose: 25.0 mg/kg/injection, schedule: Q01DX009 (ip), vehicle: Klucel (hydroxypropylcellulose) (HPC)
# [20] = dose: 50.0 mg/kg/injection, schedule: Q01DX009 (ip), vehicle: Klucel (hydroxypropylcellulose) (HPC)
# [21] = dose: 100.0 mg/kg/injection, schedule: Q01DX009 (ip), vehicle: Klucel (hydroxypropylcellulose) (HPC)
# [22] = dose: 200.0 mg/kg/injection, schedule: Q01DX009 (ip), vehicle: Klucel (hydroxypropylcellulose) (HPC)
# [23] = dose: 400.0 mg/kg/injection, schedule: Q01DX009 (ip), vehicle: Klucel (hydroxypropylcellulose) (HPC)
# [24] = dose: 100.0 mg/kg/injection, schedule: Q01DX009 (ip), vehicle: saline with Tween-80
# [25] = dose: 200.0 mg/kg/injection, schedule: Q01DX009 (ip), vehicle: saline with Tween-80
smiles,measurement,setting,value
CCCC[N+](CCCC)(CCCC)CCCC.Cc1ccc([SH2+])c([SH2+])c1.Cc1ccc([SH2+])c([SH2+])c1.[Ni+3],T/C,"dose: 100.0 mg/kg/injection, schedule: Q01DX001 (ip), vehicle: other",112 % of control
same,T/C,[1],109 % of control
same,T/C,[2],115 % of control
same,T/C,"dose: 200.0 mg/kg/injection, schedule: Q01DX001 (ip), vehicle: other",112 % of control
same,T/C,[3],118 % of control
same,T/C,[4],115 % of control
same,T/C,"dose: 265.0 mg/kg/injection, schedule: Q04DX003 (ip), vehicle: Klucel (hydroxypropylcellulose) (HPC)",116 % of control
same,T/C,"dose: 400.0 mg/kg/injection, schedule: Q01DX001 (ip), vehicle: other",112 % of control
same,T/C,[5],112 % of control
C[N+](C)(CC(=O)Nc1ccc(Cl)c(Cl)c1)CC(=O)c1ccc(Cl)cc1,T/C,"dose: 6.25 mg/kg/injection, schedule: Q04DX003 (ip), vehicle: saline",110 % of control
same,T/C,"dose: 12.5 mg/kg/injection, schedule: Q04DX003 (ip), vehicle: saline",95 % of control
same,T/C,[6],100 % of control
CCC(CO)NC(=O)/C=C/c1cc(OC)ccc1OC (stereo unspecified),T/C,[7],91 % of control
C[N+](C)(Cc1ccccc1)/N=C(\[O-])Cc1ccccc1,T/C,"dose: 50.0 mg/kg/injection, schedule: Q01DX001 (ip), vehicle: saline",109 % of control
same,T/C,"dose: 100.0 mg/kg/injection, schedule: Q01DX001 (ip), vehicle: saline",104 % of control
C1CCCC(NC2=NCCO2)CC1,T/C,"dose: 6.25 mg/kg/injection, schedule: Q04DX003 (ip), vehicle: saline with Tween-80",100 % of control
same,T/C,"dose: 12.5 mg/kg/injection, schedule: Q04DX003 (ip), vehicle: saline with Tween-80",100 % of control
same,T/C,"dose: 25.0 mg/kg/injection, schedule: Q04DX003 (ip), vehicle: saline with Tween-80",104 % of control
Cc1cc(C)nc(NN)n1,T/C,[8],98 % of control
same,T/C,[9],96 % of control
same,T/C,[10],101 % of control
same,T/C,[11],102 % of control
Cc1c(C)c(CO)c(C)c(C)c1CO,T/C,"dose: 8.0 mg/kg/injection, schedule: Q01DX009 (ip), vehicle: Klucel (hydroxypropylcellulose) (HPC)",96 % of control
same,T/C,"dose: 12.0 mg/kg/injection, schedule: Q01DX009 (ip), vehicle: Klucel (hydroxypropylcellulose) (HPC)",89 % of control
same,T/C,"dose: 12.0 mg/kg/injection, schedule: Q04DX003 (ip), vehicle: Klucel (hydroxypropylcellulose) (HPC)",104 % of control
same,T/C,"dose: 18.0 mg/kg/injection, schedule: Q01DX009 (ip), vehicle: Klucel (hydroxypropylcellulose) (HPC)",96 % of control
same,T/C,[12],95 % of control
same,T/C,[13],104 % of control
CC(O)C(C)(C)CO (stereo unspecified),T/C,[2],100 % of control
same,T/C,[4],100 % of control
same,T/C,[14],100 % of control
COc1cc(NCCCC(C)N)c2ncccc2c1OC (stereo unspecified),T/C,[15],101 % of control
same,T/C,"dose: 12.5 mg/kg/injection, schedule: Q01DX009 (ip), vehicle: saline",109 % of control
same,T/C,[16],116 % of control
CSc1nc(C)cc(=O)[nH]1,T/C,[8],105 % of control
same,T/C,[9],103 % of control
same,T/C,[10],115 % of control
same,T/C,[11],108 % of control
CCOC(=O)/C=C/c1c[nH]c(=O)[nH]c1=O,T/C,[16],101 % of control
same,T/C,[17],101 % of control
same,T/C,[18],101 % of control
same,T/C,[2],114 % of control
same,T/C,"dose: 200.0 mg/kg/injection, schedule: Q01DX009 (ip), vehicle: saline",104 % of control
same,T/C,[4],96 % of control
same,T/C,[14],96 % of control
CC1C(=O)OC(C)(C)OC1=O,T/C,[19],106 % of control
same,T/C,[12],91 % of control
same,T/C,[20],97 % of control
same,T/C,[13],123 % of control
same,T/C,[21],105 % of control
same,T/C,[1],97 % of control
same,T/C,[22],104 % of control
same,T/C,[3],94 % of control
same,T/C,[23],99 % of control
same,T/C,[5],106 % of control
Cc1ccc(S(=O)(=O)Oc2ccc(-c3ccc(Br)cc3)cc2)cc1,T/C,[11],96 % of control
same,T/C,[24],96 % of control
same,T/C,[25],101 % of control
same,T/C,[7],92 % of control
OCc1cnc[nH]1,T/C,"dose: 6.25 mg/kg/injection, schedule: Q01DX009 (ip), vehicle: Klucel (hydroxypropylcellulose) (HPC)",96 % of control
same,T/C,"dose: 12.5 mg/kg/injection, schedule: Q01DX009 (ip), vehicle: Klucel (hydroxypropylcellulose) (HPC)",91 % of control
same,T/C,[19],90 % of control
same,T/C,[20],99 % of control
Cc1ccc2nc(C)n(C)c(=O)c2c1,T/C,[11],98 % of control
same,T/C,[24],91 % of control
same,T/C,[25],92 % of control
OC(CCl)Cc1ccccc1 (stereo unspecified),T/C,[10],109 % of control
same,T/C,[11],109 % of control
O=C(COc1ccc(Cl)c(Cl)c1)N(Cc1ccccc1)Cc1cccnc1,T/C,[13],86 % of control
same,T/C,[1],95 % of control
same,T/C,[3],104 % of control
CCOC(=O)C(F)C(Br)C(=O)OCC (stereo unspecified),T/C,[11],96 % of control and 101 % of control
same,T/C,[24],116 % of control
same,T/C,[25],154 % of control
CCC1NC(C)(C)CC1=C(C)C (stereo unspecified),T/C,"dose: 1.56 mg/kg/injection, schedule: Q01DX009 (ip), vehicle: saline",104 % of control
same,T/C,"dose: 3.13 mg/kg/injection, schedule: Q01DX009 (ip), vehicle: saline",104 % of control
same,T/C,[15],104 % of control
NS(=O)(=O)c1cc([N+](=O)[O-])ccc1Cl,T/C,[1],100 % of control
same,T/C,[3],108 % of control
CNc1ccccc1O,T/C,[11],102 % of control
same,T/C,[24],98 % of control
same,T/C,[25],95 % of control
CC(=O)c1cccc(OCC(O)CN(C(C)C)C(C)C)c1 (stereo unspecified),T/C,[2],104 % of control
same,T/C,[4],109 % of control
COc1cc2ccc3cc[n+](C)cc3c2cc1OC,T/C,[16],95 % of control
same,T/C,[6],104 % of control
same,T/C,[17],96 % of control and 100 % of control
same,T/C,"dose: 50.0 mg/kg/injection, schedule: Q04DX003 (ip), vehicle: saline",95 % of control
same,T/C,[18],86 % of control
same,T/C,[2],95 % of control and 104 % of control
same,T/C,[4],90 % of control
C(=N\N=C\c1c[nH]c2ccccc12)/c1c[nH]c2ccccc12,T/C,"dose: 100.0 mg/kg/injection, schedule: Q01DX009 (ip), vehicle: gum acacia",89 % of control
same,T/C,"dose: 100.0 mg/kg/injection, schedule: Q04DX003 (ip), vehicle: gum acacia",108 % of control
same,T/C,"dose: 200.0 mg/kg/injection, schedule: Q01DX009 (ip), vehicle: gum acacia",89 % of control
same,T/C,"dose: 200.0 mg/kg/injection, schedule: Q04DX003 (ip), vehicle: gum acacia",95 % of control
same,T/C,"dose: 400.0 mg/kg/injection, schedule: Q01DX009 (ip), vehicle: gum acacia",96 % of control
same,T/C,"dose: 400.0 mg/kg/injection, schedule: Q04DX003 (ip), vehicle: gum acacia",100 % of control
C#CCOc1ccccc1/C(Cl)=N/Nc1ccc([N+](=O)[O-])cc1[N+](=O)[O-],T/C,"dose: 1.56 mg/kg/injection, schedule: Q01DX009 (ip), vehicle: saline with Tween-80",106 % of control
same,T/C,"dose: 3.12 mg/kg/injection, schedule: Q01DX009 (ip), vehicle: saline with Tween-80",97 % of control
same,T/C,[8],100 % of control
O=C1Cc2ccccc21,T/C,[24],96 % of control
same,T/C,"dose: 100.0 mg/kg/injection, schedule: Q04DX003 (ip), vehicle: saline with Tween-80",100 % of control and 110 % of control
same,T/C,"dose: 177.0 mg/kg/injection, schedule: Q04DX003 (ip), vehicle: saline with Tween-80",100 % of control
same,T/C,[25],107 % of control
same,T/C,"dose: 200.0 mg/kg/injection, schedule: Q04DX003 (ip), vehicle: saline with Tween-80",110 % of control
same,T/C,"dose: 266.0 mg/kg/injection, schedule: Q04DX003 (ip), vehicle: saline with Tween-80",104 % of control and 109 % of control
same,T/C,"dose: 600.0 mg/kg/injection, schedule: Q04DX003 (ip), vehicle: saline with Tween-80",104 % of control and 122 % of control
Cc1ccc(C(=O)/C=C/c2ccccc2O)cc1,T/C,[20],99 % of control
same,T/C,[21],109 % of control
same,T/C,[22],107 % of control
same,T/C,[23],101 % of control
